Source: patent publication US10933051B2, “Carbapenem compounds and compositions for the treatment of bacterial infections” (FOB Synthesis, Inc., priority 2017, dated 2021)

How the values were obtained:
Assay type in all cases: cell-based
Set-up in all cases: unit not given here
P. aeruginosa FSPa-121 = test: Antimicrobial Susceptibility Test (CLSI), Test Example 2; details: Table 4; strain produces OXA-17
Description: (§1) Antimicrobial Susceptibility Test was performed by the CLSI (Clinical and Laboratory Standards Institute) methods. The agar dilution method for determining antimicrobial susceptibility was carried out using Mueller Hinton-II agar and the amount of inoculation was 10^4CFU/spot. Broth dilution tests were performed using the Mueller Hinton-II broth. All assays were run with the indicated control strains, available from the ATCC (American Type Culture Collection, Rockville, Md.).

[1] = test system: K. pneumoniae ATCC BAA-1904; test: as above; details: Table 4; strain produces KPC-3
Description: as §1

E. coli FSEco-054 [2] = test: as above; details: Table 4; strain produces ESBL
Description: as §1

A. baumannii FSAb-039 [3] = test: as above; details: Table 4; strain produces OXA-51
Description: as §1

A. baumannii FSAb-029 [4] = test: as above; details: Table 4; strain produces OXA-2, IMP-1
Description: as §1

A. baumannii FSAb-056 [5] = test: as above; details: Table 4; strain produces OXA-23, OXA-51
Description: as §1

A. baumannii FSAb-065 = test: as above; details: Table 4; strain produces OXA-2, VIM-2
Description: as §1

E. coli FSEco-054 [6] = test: Antimicrobial Susceptibility Test (CLSI), Test Example 3; details: Table 6; strain produces ESBL
Description: as §1

A. baumannii FSAb-039 [7] = test: as above; details: Table 6; strain produces OXA-51
Description: as §1

A. baumannii FSAb-029 [8] = test: as above; details: Table 6; strain produces OXA-2, IMP-1
Description: as §1

A. baumannii FSAb-056 [9] = test: as above; details: Table 6; strain produces OXA-23, 51
Description: as §1

A. baumannii FSAb-141 = test: as above; details: Table 6; strain produces PER-1, OXA-23, 51, 66
Description: as §1

K. pneumoniae BAA-1904 = test: as above; details: Table 6; strain produces KPC-3
Description: as §1

P. aeruginosa FSPa-102 = test: as above; details: Table 6; strain produces IMP-1
Description: as §1

P. aeruginosa FSPa-141 = test: as above; details: Table 6; strain produces VIM-2
Description: as §1

SMILES	antimicrobial susceptibility, P. aeruginosa FSPa-121 (P. aeruginosa FSPa-121)	antimicrobial susceptibility, K. pneumoniae BAA-1904 [1]	antimicrobial susceptibility, E. coil FSEco-054 (E. coli FSEco-054 [2])	antimicrobial susceptibility, A. baumannii FSAb-039 (A. baumannii FSAb-039 [3])	antimicrobial susceptibility, A. baumannii FSAb-029 (A. baumannii FSAb-029 [4])	antimicrobial susceptibility, A. baumannii FSAb-056 (A. baumannii FSAb-056 [5])	antimicrobial susceptibility, A. baumannii FSAb-065 (A. baumannii FSAb-065)	antimicrobial susceptibility, Ec FSEco-054 (E. coli FSEco-054 [6])	antimicrobial susceptibility, Ab FSAb-039 (A. baumannii FSAb-039 [7])	antimicrobial susceptibility, Ab FSAb-029 (A. baumannii FSAb-029 [8])	antimicrobial susceptibility, Ab FSAb-056 (A. baumannii FSAb-056 [9])	antimicrobial susceptibility, Ab FSAb-141 (A. baumannii FSAb-141)	antimicrobial susceptibility, Kp BAA-1904 (K. pneumoniae BAA-1904)	antimicrobial susceptibility, Pa FSPa-102 (P. aeruginosa FSPa-102)	antimicrobial susceptibility, Pa FSPa-141 (P. aeruginosa FSPa-141)
C[C@@H](O)[C@H]1C(=O)N2C(C(=O)O)=C(CN3C[C@@H](NC(=O)c4ccc(O)c(O)c4Cl)C[C@H]3C(N)=O)[C@H](C)[C@H]12 [Compound 32]	1	>32	4	>32	2	16	1	–	–	–	–	–	–	–	–
C[C@@H](O)[C@H]1C(=O)N2C(C(=O)O)=C(CN3C[C@@H](NC(=O)c4ccc(O)c(O)c4Cl)C[C@@H]3C(N)=O)[C@H](C)[C@H]12 [Compound 33]	2	>32	4	32	4	8	1	–	–	–	–	–	–	–	–
C[C@@H](O)[C@H]1C(=O)N2C(C(=O)O)=C(CN3CCCC3CNC(=O)c3ccc(O)c(O)c3Cl)[C@H](C)[C@H]12 (some centres unmarked) [Compound 34]	8	>32	2	8	2	8	8	–	–	–	–	–	–	–	–
C[C@@H](O)[C@H]1C(=O)N2C(C(=O)O)=C(CN3CCCC3CNC(=O)c3ccc(O)c(O)c3Cl)[C@H](C)[C@H]12 (some centres unmarked) [Compound 35]	4	>32	2	8	4	4	2	–	–	–	–	–	–	–	–
C[C@@H](O)[C@H]1C(=O)N2C(C(=O)O)=C(CN3CCC(C(=O)NCc4ccc(O)c(O)c4Cl)C3)[C@H](C)[C@H]12 (some centres unmarked) [Compound 37]	8	>32	8	32	8	16	4	–	–	–	–	–	–	–	–
C[C@@H](O)[C@H]1C(=O)N2C(C(=O)O)=C(CN3CC(NC(=O)c4ccc(O)c(O)c4Cl)C3)[C@H](C)[C@H]12 [Compound 38]	4	16	2	4	0.5	4	0.25	–	–	–	–	–	–	–	–
C[C@@H](O)[C@H]1C(=O)N2C(C(=O)O)=C(CN3CC(C(=O)NCc4ccc(O)c(O)c4Cl)C3)[C@H](C)[C@H]12 [Compound 39]	16	8	2	8	4	8	1	–	–	–	–	–	–	–	–
C[C@@H](O)[C@H]1C(=O)N2C(C(=O)[O-])=C(C[N+](C)(C)CCNC(=O)c3ccc(O)c(O)c3Cl)[C@H](C)[C@H]12 [Compound 40]	4	16	4	16	8	8	4	–	–	–	–	–	–	–	–
C[C@@H](O)[C@H]1C(=O)N2C(C(=O)O)=C(CN(CCNC(=O)c3ccc(O)c(O)c3F)CCNC(=O)c3ccc(O)c(O)c3F)[C@H](C)[C@H]12 [Compound 101]	–	–	–	–	–	–	–	2	2	0.25	4	0.5	>32	1	1
C[C@@H](O)[C@H]1C(=O)N2C(C(=O)O)=C(CN(CCCNC(=O)c3ccc(O)c(O)c3F)CCNC(=O)c3ccc(O)c(O)c3F)[C@H](C)[C@H]12 [Compound 102]	–	–	–	–	–	–	–	1	1	0.25	4	0.5	>32	1	2
C[C@@H](O)[C@H]1C(=O)N2C(C(=O)O)=C(CN(CCCNC(=O)c3ccc(O)c(O)c3F)CCCNC(=O)c3ccc(O)c(O)c3F)[C@H](C)[C@H]12 [Compound 103]	–	–	–	–	–	–	–	1	1	0.25	4	1	>32	2	8
C[C@@H](O)[C@H]1C(=O)N2C(C(=O)O)=C(CN(CCCCNC(=O)c3ccc(O)c(O)c3F)CCCNC(=O)c3ccc(O)c(O)c3F)[C@H](C)[C@H]12 [Compound 104]	–	–	–	–	–	–	–	1	2	0.5	4	1	>32	2	4
C[C@@H](O)[C@H]1C(=O)N2C(C(=O)O)=C(CN(CCNC(=O)c3ccc(O)c(O)c3Cl)CCNC(=O)c3ccc(O)c(O)c3Cl)[C@H](C)[C@H]12 [Compound 105]	–	–	–	–	–	–	–	1	2	0.5	2	0.5	16	1	0.5
C[C@@H](O)[C@H]1C(=O)N2C(C(=O)O)=C(CN(CCCNC(=O)c3ccc(O)c(O)c3Cl)CCNC(=O)c3ccc(O)c(O)c3Cl)[C@H](C)[C@H]12 [Compound 106]	–	–	–	–	–	–	–	1	1	0.25	2	0.5	>32	1	1
C[C@@H](O)[C@H]1C(=O)N2C(C(=O)O)=C(CN(CCCNC(=O)c3ccc(O)c(O)c3Cl)CCCNC(=O)c3ccc(O)c(O)c3Cl)[C@H](C)[C@H]12 [Compound 107]	–	–	–	–	–	–	–	0.5	1	0.25	2	0.5	>32	1	1
C[C@@H](O)[C@H]1C(=O)N2C(C(=O)O)=C(CN(CCCCNC(=O)c3ccc(O)c(O)c3Cl)CCCNC(=O)c3ccc(O)c(O)c3Cl)[C@H](C)[C@H]12 [Compound 108]	–	–	–	–	–	–	–	1	2	1	4	1	>32	2	2
C[C@@H](O)[C@H]1C(=O)N2C(C(=O)O)=C(CN(CCCNC(=O)c3ccc(O)c(O)c3)CCNC(=O)c3ccc(O)c(O)c3)[C@H](C)[C@H]12 [Compound 109]	–	–	–	–	–	–	–	2	2	1	4	2	>32	4	4
